Experimental data from patent US10428083B2, “Heterocyclylmethyl-thienouracile as antagonists of the adenosine-A2B-receptor” (BAYER PHARMA AKTIENGESELLSCHAFT, priority 2015, dated 2019).

What follows are compounds tested against human adenosine A2b receptor (Homo sapiens (Human), UniProt P29275) (assay: Cellular in vitro reporter gene test for A2b receptor activity (CHO-K1, CRE-luciferase, NECA stimulation)). Settings: recombinant CHO-K1 cell line, CRE-luciferase reporter, antagonism of EC50 concentration of NECA; in some cases means of several determinations, rounded to two significant figures; read-out: A2b receptor IC50.
Chain of human adenosine A2b receptor (P29275 whole entry): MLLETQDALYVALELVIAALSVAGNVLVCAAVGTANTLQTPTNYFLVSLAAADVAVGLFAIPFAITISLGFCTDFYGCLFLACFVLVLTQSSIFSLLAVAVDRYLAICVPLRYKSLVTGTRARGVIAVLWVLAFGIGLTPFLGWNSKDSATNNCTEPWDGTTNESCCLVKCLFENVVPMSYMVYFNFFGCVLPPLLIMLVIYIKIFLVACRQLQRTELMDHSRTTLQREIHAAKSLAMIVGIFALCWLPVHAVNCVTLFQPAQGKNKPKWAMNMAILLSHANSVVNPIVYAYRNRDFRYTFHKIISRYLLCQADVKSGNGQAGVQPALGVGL
Format: cell-based
Method: B-1. Cellular In Vitro Tests for Determining A2b Receptor Activity and Adenosine Receptor Selectivity
In the case of the A2a and A2b cell lines, this is a minimal promoter having a plurality of cAMP-responsive elements (CRE). Stimulation of the Gs-coupled A2b or A2a receptors by NECA ultimately leads, via formation of cAMP, to CRE-dependent induction of luciferase expression, which is detected 3 hours after the start of the incubation with NECA using a detection solution in a suitable luminometer. For testing the antagonists, initially, in a pre-experiment, the concentration of NECA which, at the test day in question, results in half-maximum stimulation of luciferase expression (EC50 concentration) is determined. By joint incubation of this EC50 concentration of NECA with the substances to be tested, it is possible to determine their antagonistic activity.
`Cc1c(CN2CCNC2=O)sc2c1c(=O)n(CC(F)(F)F)c(=O)n2CC1CCO1` (racemic) [Example 206, 5-Methyl-1-(oxetan-2-ylmethyl)-6-[(2-oxoimidazolidin-1-yl)methyl]-3-(2,2,2-trifluoroethyl)thieno[2,3-d]pyrimidine-2,4(1H,3H)-dione] gave an IC50 of 11 nM. `Cc1c(CN2CCNC2=O)sc2c1c(=O)n(CC(F)(F)F)c(=O)n2CC1CCCO1` (racemic) [Example 209, 5-Methyl-6-[(2-oxoimidazolidin-1-yl)methyl]-1-(tetrahydrofuran-2-ylmethyl)-3-(2,2,2-trifluoroethyl)thieno[2,3-d]pyrimidine-2,4(1H,3H)-dione] gave an IC50 of 12 nM. In the case of `Cc1c(CN2CCNC2=O)sc2c1c(=O)n(CC(F)F)c(=O)n2CC1CCO1` (racemic) [Example 216, 3-(2,2-Difluoroethyl)-5-methyl-1-(oxetan-2-ylmethyl)-6-[(2-oxoimidazolidin-1-yl)methyl]thieno[2,3-d]pyrimidine-2,4(1H,3H)-dione], the IC50 is reported as 34 nM. Work on `Cc1c(CN2CCNC2=O)sc2c1c(=O)n(CC(F)F)c(=O)n2CC1CCCO1` (racemic) [Example 219, 3-(2,2-Difluoroethyl)-5-methyl-6-[(2-oxoimidazolidin-1-yl)methyl]-1-(tetrahydrofuran-2-ylmethyl)thieno[2,3-d]pyrimidine-2,4(1H,3H)-dione] yielded an IC50 of 19 nM. `COCCn1c(=O)c2c(C)c(CN3CCNC3=O)sc2n(CC2CCCO2)c1=O` (racemic) [Example 233, 3-(2-Methoxyethyl)-5-methyl-6-[(2-oxoimidazolidin-1-yl)methyl]-1-(tetrahydrofuran-2-ylmethyl)thieno[2,3-d]pyrimidine-2,4(1H,3H)-dione] showed an IC50 of 23 nM. For `CCn1c(=O)c2c(C)c(Cn3cc[nH]c3=O)sc2n(CC2CCCO2)c1=O` (racemic) [Example 242, 3-Ethyl-5-methyl-6-[(2-oxo-2,3-dihydro-1H-imidazol-1-yl)methyl]-1-(tetrahydrofuran-2-ylmethyl)thieno[2,3-d]pyrimidine-2,4(1H,3H)-dione], the IC50 was 1.4 nM. Compound `Cc1c(Cn2cc[nH]c2=O)sc2c1c(=O)n(C(C)C)c(=O)n2CC1CCCO1` (racemic) [Example 247, 3-Isopropyl-5-methyl-6-[(2-oxo-2,3-dihydro-1H-imidazol-1-yl)methyl]-1-(tetrahydrofuran-2-ylmethyl)thieno[2,3-d]pyrimidine-2,4(1H,3H)-dione] has an IC50 of 8.9 nM. Compound `CCn1c(=O)c2c(C)c(CN3CCNC3=NC#N)sc2n(CC2CCO2)c1=O` (racemic) [Example 256, [1-{[3-Ethyl-5-methyl-1-(oxetan-2-ylmethyl)-2,4-dioxo-1,2,3,4-tetrahydrothieno[2,3-d]pyrimidin-6-yl]methyl}imidazolidin-2-ylidene]cyanamide] has an IC50 of 11 nM. Compound `CCn1c(=O)c2c(C)c(CN3CCNC3=NC#N)sc2n(CC2CCCO2)c1=O` (racemic) [Example 259, [1-{[3-Ethyl-5-methyl-2,4-dioxo-1-(tetrahydrofuran-2-ylmethyl)-1,2,3,4-tetrahydrothieno[2,3-d]pyrimidin-6-yl]methyl}imidazolidin-2-ylidene]cyanamide] has an IC50 of 9.8 nM. `Cc1c(CN2CCNC2=NC#N)sc2c1c(=O)n(C(C)C)c(=O)n2CC1CCO1` (racemic) [Example 264, [1-{[3-Isopropyl-5-methyl-1-(oxetan-2-ylmethyl)-2,4-dioxo-1,2,3,4-tetrahydrothieno[2,3-d]pyrimidin-6-yl]methyl}imidazolidin-2-ylidene]cyanamide] gave an IC50 of 3.1 nM. `Cc1c(CN2CCNC2=NC#N)sc2c1c(=O)n(C(C)C)c(=O)n2CC1CCCO1` (racemic) [Example 267, [1-{[3-Isopropyl-5-methyl-2,4-dioxo-1-(tetrahydrofuran-2-ylmethyl)-1,2,3,4-tetrahydrothieno[2,3-d]pyrimidin-6-yl]methyl}imidazolidin-2-ylidene]cyanamide] gave an IC50 of 4.6 nM. With `Cc1c(CN2CCNC2=NC#N)sc2c1c(=O)n(CC(F)(F)F)c(=O)n2CC1CCCO1` (racemic) [Example 269, [1-{[5-Methyl-2,4-dioxo-1-(tetrahydrofuran-2-ylmethyl)-3-(2,2,2-trifluoroethyl)-1,2,3,4-tetrahydrothieno[2,3-d]pyrimidin-6-yl]methyl}imidazolidin-2-ylidene]cyanamide] the IC50 was 24 nM. `COCCn1c(=O)c2c(C)c(CN3CCNC(=O)C3=O)sc2n(CC2CCCO2)c1=O` (racemic) [Example 278, 6-[(2,3-Dioxopiperazin-1-yl)methyl]-3-(2-methoxyethyl)-5-methyl-1-(tetrahydrofuran-2-ylmethyl)thieno[2,3-d]pyrimidine-2,4(1H,3H)-dione] gave an IC50 of 130 nM. `Cc1c(Cn2[nH]ccc2=O)sc2c1c(=O)n(CC(F)(F)F)c(=O)n2CC1CCCO1` (racemic) [Example 284, 5-Methyl-6-[(5-oxo-2,5-dihydro-1H-pyrazol-1-yl)methyl]-1-(tetrahydrofuran-2-ylmethyl)-3-(2,2,2-trifluoroethyl)thieno[2,3-d]pyrimidine-2,4(1H,3H)-dione] gave an IC50 of 79 nM. `COCCn1c(=O)c2c(C)c(Cn3[nH]ccc3=O)sc2n(CC2CCCO2)c1=O` (racemic) [Example 289, 3-(2-Methoxyethyl)-5-methyl-6-[(5-oxo-2,5-dihydro-1H-pyrazol-1-yl)methyl]-1-(tetrahydrofuran-2-ylmethyl)thieno[2,3-d]pyrimidine-2,4(1H,3H)-dione] showed an IC50 of 180 nM. In the case of `CCn1c(=O)c2c(C)c(CN3CC(C)NC3=S)sc2n(CCOC)c1=O` (racemic) [Example 303, 3-Ethyl-1-(2-methoxyethyl)-5-methyl-6-[(4-methyl-2-thioxoimidazolidin-1-yl)methyl]thieno[2,3-d]pyrimidine-2,4(1H,3H)-dione], the IC50 is reported as 46 nM. `COCCn1c(=O)n(CC2CC2(F)F)c(=O)c2c(C)c(CN3CCNC3=O)sc21` (racemic) [Example 323, 3-[(2,2-Difluorocyclopropyl)methyl]-1-(2-methoxyethyl)-5-methyl-6-[(2-oxoimidazolidin-1-yl)methyl]thieno[2,3-d]pyrimidine-2,4(1H,3H)-dione] gave an IC50 of 34 nM. Work on `COCCn1c(=O)n(C(C)COC)c(=O)c2c(C)c(CN3CCNC3=O)sc21` (racemic) [Example 329, 1-(2-Methoxyethyl)-3-(1-methoxypropan-2-yl)-5-methyl-6-[(2-oxoimidazolidin-1-yl)methyl]thieno[2,3-d]pyrimidine-2,4(1H,3H)-dione] yielded an IC50 of 900 nM. For `COCCn1c(=O)n(CC2CCCO2)c(=O)c2c(C)c(CN3CCNC3=O)sc21` (racemic) [Example 332, 1-(2-Methoxyethyl)-5-methyl-6-[(2-oxoimidazolidin-1-yl)methyl]-3-(tetrahydrofuran-2-ylmethyl)thieno[2,3-d]pyrimidine-2,4(1H,3H)-dione], the IC50 was 110 nM. With `Cc1c(Cn2cc[nH]c2=O)sc2c1c(=O)n(CC(F)(F)F)c(=O)n2CC1CCCO1` (racemic) [Example 341, 5-Methyl-6-[(2-oxo-2,3-dihydro-1H-imidazol-1-yl)methyl]-1-(tetrahydrofuran-2-ylmethyl)-3-(2,2,2-trifluoroethyl)thieno[2,3-d]pyrimidine-2,4(1H,3H)-dione] the IC50 was 12 nM. For `COCCn1c(=O)c2c(C)c(Cn3cc[nH]c3=O)sc2n(CC2CCCO2)c1=O` (racemic) [Example 346, 3-(2-Methoxyethyl)-5-methyl-6-[(2-oxo-2,3-dihydro-1H-imidazol-1-yl)methyl]-1-(tetrahydrofuran-2-ylmethyl)thieno[2,3-d]pyrimidine-2,4(1H,3H)-dione], the IC50 was 37 nM. `COCCn1c(=O)c2c(C)c(CN3CCNC3=NC#N)sc2n(CC2CCO2)c1=O` (racemic) [Example 364, [1-{[3-(2-Methoxyethyl)-5-methyl-1-(oxetan-2-ylmethyl)-2,4-dioxo-1,2,3,4-tetrahydrothieno[2,3-d]pyrimidin-6-yl]methyl}imidazolidin-2-ylidene]cyanamide] showed an IC50 of 170 nM. `COCCn1c(=O)c2c(C)c(CN3CCNC3=NC#N)sc2n(CC2CCCO2)c1=O` (racemic) [Example 367, [1-{[3-(2-Methoxyethyl)-5-methyl-2,4-dioxo-1-(tetrahydrofuran-2-ylmethyl)-1,2,3,4-tetrahydrothieno[2,3-d]pyrimidin-6-yl]methyl}imidazolidin-2-ylidene]cyanamide] showed an IC50 of 33 nM. `CCn1c(=O)c2c(C)c(CN3CCNC3=NC(=O)OC)sc2n(CC2CCO2)c1=O` (racemic) [Example 371, Methyl [1-{[3-ethyl-5-methyl-1-(oxetan-2-ylmethyl)-2,4-dioxo-1,2,3,4-tetrahydrothieno[2,3-d]pyrimidin-6-yl]methyl}imidazolidin-2-ylidene]carbamate] gave an IC50 of 9.8 nM. `CCn1c(=O)c2c(C)c(CN3CCNC3=NC(=O)OC)sc2n(CC2CCCO2)c1=O` (racemic) [Example 374, Methyl [1-{[3-ethyl-5-methyl-2,4-dioxo-1-(tetrahydrofuran-2-ylmethyl)-1,2,3,4-tetrahydrothieno[2,3-d]pyrimidin-6-yl]methyl}imidazolidin-2-ylidene]carbamate] was tested, and the IC50 was 7 nM. In the case of `COC(=O)N=C1NCCN1Cc1sc2c(c1C)c(=O)n(C(C)C)c(=O)n2CC1CCO1` (racemic) [Example 379, Methyl [1-{[3-isopropyl-5-methyl-1-(oxetan-2-ylmethyl)-2,4-dioxo-1,2,3,4-tetrahydrothieno[2,3-d]pyrimidin-6-yl]methyl}imidazolidin-2-ylidene]carbamate], the IC50 is reported as 13 nM. `COC(=O)N=C1NCCN1Cc1sc2c(c1C)c(=O)n(C(C)C)c(=O)n2CC1CCCO1` (racemic) [Example 380, Methyl [1-{[3-isopropyl-5-methyl-2,4-dioxo-1-(tetrahydrofuran-2-ylmethyl)-1,2,3,4-tetrahydrothieno[2,3-d]pyrimidin-6-yl]methyl}imidazolidin-2-ylidene]carbamate] gave an IC50 of 12 nM.
